In publication PMC12040169 (PLOS Biology, 2025):

Test: in vitro
Conditions: human, hela cells

COc1cccc(-c2cnc(N(C)S(C)(=O)=O)c(C(=O)NC3CCCCC3)c2)c1 [CBK106446]
viability at 28.5 h, 10 µM (% viability): 109%

CS(=O)(=O)c1ccc(Cn2ccnc(OC3CCN(C(=O)c4ccc(C#N)cc4)CC3)c2=O)cc1 [CBK161804]
viability at 28.5 h, 10 µM (% viability): 92.4%

COc1ncc(-c2cncc(Nc3cccc(C#N)c3)n2)c(OC)n1 [CBK066022]
viability at 28.5 h, 10 µM (% viability): 89.7%

O=S(=O)(Cc1ccccc1)Nc1cccc2[nH]ccc12 [CBK159490]
viability at 28.5 h, 10 µM (% viability): 76.6%

CN(Cc1ccccc1)c1nc(C(F)(F)F)cc(=O)[nH]1 [CBK000319]
viability at 28.5 h, 10 µM (% viability): 92%

CCCS(=O)(=O)n1c(=O)n(CCc2c[nH]c3ccccc23)c2ccccc21 [CBK106515]
viability at 28.5 h, 10 µM (% viability): 87.8%

Cc1cc(S(=O)(=O)NCC(C)n2nc(C)c(C)c2C)ccc1F (centres unmarked) [CBK282010]
viability at 28.5 h, 10 µM (% viability): 87.4%

O=C(CSc1nnc(-c2ccncc2)n1-c1ccccc1)N/N=C/c1c[nH]c2ccc(Br)cc12 [CBK262816]
viability at 28.5 h, 10 µM (% viability): 91.5%

NC(=O)c1c(NC(=O)CSC2=NCCS2)sc2c1CCCC2 [CBK269989]
viability at 28.5 h, 10 µM (% viability): 87.9%

CCOC(=O)C1=C(Nc2ccc([N+](=O)[O-])cc2)S/C(=C\c2ccc(O)c(OC)c2)C1=O [CBK263873]
viability at 28.5 h, 10 µM (% viability): 89.3%

CCC(=O)Nc1nc(-c2ccco2)c(-c2ccncc2)s1 [CBK284495]
viability at 28.5 h, 10 µM (% viability): 101%

O=c1c2cc(OCc3ccc(Cl)cc3)ccc2nc2n1CCC2 [CBK287977]
viability at 28.5 h, 10 µM (% viability): 91.6%

N/N=C1\C2CN3CCN(C2)CC1(Cc1ccccc1)C3 [CBK261977]
viability at 28.5 h, 10 µM (% viability): 91.8%

CCCCNS(=O)(=O)c1ccccc1[N+](=O)[O-] [CBK261456]
viability at 28.5 h, 10 µM (% viability): 93.1%

O=C(O)c1cc(Br)cc2c3c([nH]c12)CCCC3 [CBK100973]
viability at 28.5 h, 10 µM (% viability): 99.7%

CC(C)NC(=O)c1sc2ccccc2c1C1CN(Cc2ccc3ncccc3c2)CCO1 (centres unmarked) [CBK285930]
viability at 28.5 h, 10 µM (% viability): 81.5%

Cc1cc(NC(=O)c2cc([N+](=O)[O-])ccc2Cl)nc2c1c(=O)oc1ccccc12 [CBK291258]
viability at 28.5 h, 10 µM (% viability): 90.8%

CC1CCCCC1NC(=O)CSc1cccc2cccnc12 (centres unmarked) [CBK058143]
viability at 28.5 h, 10 µM (% viability): 96.9%

Cc1ccc2c(c1)oc(=O)n2CCNC(=O)Cc1c[nH]c2ccccc12 [CBK284473]
viability at 28.5 h, 10 µM (% viability): 101%

O=C(CSc1ncnc2ccccc12)Nc1nc2ccccc2s1 [CBK287510]
viability at 28.5 h, 10 µM (% viability): 85.5%

COc1ccc(-c2cncc(C3CN(Cc4ccc(C)cc4OC)CCO3)n2)cc1 (centres unmarked) [CBK286100]
viability at 28.5 h, 10 µM (% viability): 91.8%

O=C(NCCN1CCOCC1)c1cc(-c2ccc(Cl)cc2)nc2ccccc12 [CBK262650]
viability at 28.5 h, 10 µM (% viability): 96.6%

CN(C(=O)C1CCN(Cc2cccc(C(F)(F)F)c2)CC1)C(c1ccc(F)cc1)c1ccccn1 (centres unmarked) [CBK148409]
viability at 28.5 h, 10 µM (% viability): 95.7%

COc1ccc(Nc2nc(N)nc(CSC(=S)N3CCN(C)CC3)n2)cc1 [CBK265232]
viability at 28.5 h, 10 µM (% viability): 90.8%

O=C(O)c1ccc2[nH]c(=O)[nH]c2c1 [CBK032631]
viability at 28.5 h, 10 µM (% viability): 81.3%

CCNC(=O)CN(CC)S(=O)(=O)c1cccc(C#N)c1 [CBK306481]
viability at 28.5 h, 10 µM (% viability): 90.1%

Cc1nnc(CN(C)C2CCN(CC3CCCC3)C2)n1C (centres unmarked) [CBK304851]
viability at 28.5 h, 10 µM (% viability): 106%

CSc1ccccc1C(=O)N1CCN(S(=O)(=O)c2sc(C(=O)O)c(C)c2C(=O)O)CC1 [CBK297149]
viability at 28.5 h, 10 µM (% viability): 90.4%

Cc1ccc(SCCNS(=O)(=O)c2cccc([N+](=O)[O-])c2)cc1 [CBK267508]
viability at 28.5 h, 10 µM (% viability): 81.4%

O=C(/C=C/c1ccc2c(c1)OCO2)N1CCN(C(=O)c2ccco2)CC1 [CBK144459]
viability at 28.5 h, 10 µM (% viability): 95.1%

COCCCn1c(=O)[nH]c2ncc(-c3cccc(/C=C/C(=O)O)c3)nc21 [CBK065107]
viability at 28.5 h, 10 µM (% viability): 104%

O=C(Cc1ccsc1)N1CCN(C(=O)c2ccco2)CC1 [CBK144446]
viability at 28.5 h, 10 µM (% viability): 86%

CN(C)C(=O)C1(Cc2ccccc2-c2ccccc2)CCN(C(=O)c2cccc(F)c2)CC1 [CBK285675]
viability at 28.5 h, 10 µM (% viability): 111%

CS(=O)(=O)Nc1cc2cccnc2c(-c2ccccc2)n1 [CBK061928]
viability at 28.5 h, 10 µM (% viability): 95.5%

Nc1nonc1OCC(COc1nonc1N)(COc1nonc1N)COc1nonc1N [CBK011044]
viability at 28.5 h, 10 µM: 85.6%

O=C(Nc1cccc(C(=O)O)c1)Nc1ccc(Cl)c(Cl)c1 [CBK155455G]
viability at 28.5 h, 10 µM (% viability): 88.7%

CSCCC(=O)NCc1ccc(-c2csnn2)cc1 [CBK149304]
viability at 28.5 h, 10 µM (% viability): 83.2%

O=C(N/N=C/c1c(F)cccc1Cl)c1ccccc1O [CBK261815]
viability at 28.5 h, 10 µM (% viability): 113%

COc1ccc2cc(COC(=O)c3cnc(C)cn3)c(Cl)nc2c1 [CBK295288]
viability at 28.5 h, 10 µM (% viability): 106%

Cc1cccc(-c2csc3c(=O)[nH]c(N4CCC(C(=O)NCc5cccnc5)CC4)nc23)c1 [CBK215624]
viability at 28.5 h, 10 µM (% viability): 86.8%

CSCC(=O)N[C@H]1CCN2C(=O)N(c3cccc(C(C)=O)c3)C(=O)[C@@H]2C1 [CBK289546]
viability at 28.5 h, 10 µM (% viability): 90.6%

O=[N+]([O-])c1ccc(-n2cnc3ccccc32)c([N+](=O)[O-])c1 [CBK261120]
viability at 28.5 h, 10 µM (% viability, bulk resorufin, single well): 91.9%

CCCCOc1ccc(C(=O)N/C(=C/c2ccc(OC)cc2)C(=O)O)cc1 [CBK300490]
viability at 28.5 h, 10 µM (% viability): 87.5%

CC(C)(C)c1ccc(C(O)CN2CCC(O)(c3ccc4c(c3)OCO4)CC2)cc1 (centres unmarked) [CBK286336]
viability at 28.5 h, 10 µM (% viability): 89.3%

OC(COc1cccc(Oc2ccccc2)c1)CN1CCN(c2ccccc2F)CC1 (centres unmarked) [CBK267468]
viability at 28.5 h, 10 µM (% viability): 95.5%

CCOC(=O)c1c(NC(=O)CSc2nncn2C)sc(C)c1C [CBK267970]
viability at 28.5 h, 10 µM (% viability): 89.8%

COC(=O)c1sc2cc(C(F)(F)F)cnc2c1-c1ccccn1 [CBK089888]
viability at 28.5 h, 10 µM (% viability): 93.2%

CN(C)c1ccc(/C=C2/C(=N)N3N=C(c4ccccc4Cl)SC3=NC2=O)cc1 [CBK097554]
viability at 28.5 h, 10 µM (% viability): 94.6%

CCCNC(=O)Cc1sccc1NS(=O)(=O)c1ccc(C)cc1 [CBK038118]
viability at 28.5 h, 10 µM (% viability): 83%

COc1ccccc1NC(=O)N1C[C@@H]2C[C@H](C1)c1c(-c3cccc(C#N)c3)ccc(=O)n1C2 [CBK289197]
viability at 28.5 h, 10 µM (% viability): 92.8%

Nc1ccc(-c2cncc(NCCc3ccccn3)n2)cc1 [CBK065632]
viability at 28.5 h, 10 µM (% viability): 103%

O=C(O)C1CC=CCC1C(=O)Nc1ccc(CN2CCOCC2)cc1 (centres unmarked) [CBK299786]
viability at 28.5 h, 10 µM (% viability): 107%

O=C(COc1ccc(Br)cc1)Nc1ccc(Cl)c(-c2nc3ccccc3[nH]2)c1 [CBK263075]
viability at 28.5 h, 10 µM (% viability): 92%

Cc1cccc(Cn2cnc(NC(=O)COc3ccc([N+](=O)[O-])c(C)c3)n2)c1 [CBK268177]
viability at 28.5 h, 10 µM (% viability): 118%

Cc1ccc(C(=O)O)cc1NC(=O)c1cccc(C(=O)Nc2cc(C(=O)O)ccc2C)c1 [CBK262797]
viability at 28.5 h, 10 µM (% viability): 97.5%

Cc1nn(C)c(C)c1CC(=O)Nc1nc(C(C)(C)C)cs1 [CBK250992]
viability at 28.5 h, 10 µM (% viability): 105%

N#Cc1ccccc1NC(=O)CSc1nc2cc(Cl)ccc2[nH]1 [CBK270019]
viability at 28.5 h, 10 µM (% viability): 99.4%

CN1CCN(c2nc(-c3ccco3)cn3ccnc23)CC1 [CBK038045]
viability at 28.5 h, 10 µM (% viability): 83.7%

CCC(=O)Nc1ccc(C(=O)Nc2ccc(S(=O)(=O)N3CCCCC3)cc2)cc1 [CBK269549]
viability at 28.5 h, 10 µM (% viability): 84%

O=C1C(=CNCCC(c2ccccc2)c2ccccc2)C(=O)c2ccccc21 [CBK262987]
viability at 28.5 h, 10 µM (% viability): 97%

CC(C)NC(=O)Nc1ccc(C(=O)N(CCC#N)C(C)C2CC2)cc1 (centres unmarked) [CBK305312]
viability at 28.5 h, 10 µM (% viability): 110%

CN1CCN(c2ccc(-c3cncc(NC4CCOCC4)n3)cn2)CC1 [CBK037229]
viability at 28.5 h, 10 µM (% viability): 105%
